# Laboratory results reported in US20200188477A1, “A MEDICAMENT FOR THE TREATMENT OF DISEASES BY BIOFILM FORMING MICROORGANISMS” (priority 2017, published 2020).
# Like-named read-outs stand apart in the source and are kept apart here.
# Test system: M. smegmatis
# Experiment: microbe, parasite or virus in culture
# Assay type: cell-based, Mycobacterium smegmatis
# Settings: for MIC: Mycolicibacterium smegmatis
compound,measurement,setting,value
NNC(=O)c1ccncc1 [isoniazide],MIC,"absence of acarbose, PpiB (Tet+), read-out: MIC",64 µg/mL
same,MIC,"absence of acarbose, VC (Tet+), read-out: MIC",16 µg/mL
same,MIC,"absence of cyclosporine A, PpiB (tet+), read-out: minimum inhibitory concentration (MIC)",64 µg/mL
same,MIC,"absence of cyclosporine A, […], read-out: minimum inhibitory concentration (MIC)",16 µg/mL
same,MIC,"presence of acarbose, PpiB (Tet+), read-out: MIC",32 µg/mL
same,MIC,"presence of cyclosporine A, PpiB (tet+), read-out: MIC",32 µg/mL
same,MIC,"presence of cyclosporine A, […], read-out: MIC",8 µg/mL
CC[C@@H](CO)NCCN[C@@H](CC)CO [ethambutol],concentration that inhibits culture,"absence of cyclosporine A, […]",4 µg/mL
same,inhibitory effect on culture,"presence of cyclosporine A, […]",enhanced
